According to PubChem BioAssay AID254 (DTP/NCI, 2004):
Several values for one entry are separate records, joined by “and”; a condition that tells them apart may be missing. Equal entries are not always repeated. Inconclusive results and toxic doses are left out.

Tested on: L1210 leukemia iv in BDF1 mice, survival T/C
Assay: NCI In Vivo Anticancer Drug Screen. Data for tumor model L1210 Leukemia (intravenous) in B6D2F1 (BDF1) mice
Conditions: higher = longer survival
Experimental: The antitumor activity of compounds was measured in mice bearing transplantable tumors. Survival or tumor size were measured and the results are expressed as the measurement made in the treated group (T) divided by the measurement made in the vehicle treated control group (C). The tumor model used in this assay is L1210 Leukemia (intravenous) in B6D2F1 (BDF1) mice

`CCCCCCCCCCCCCCCC(=O)OCC1OC(n2ccc(N)nc2=O)C(O)C1O` (stereo unspecified) was tested, and the T/C (endpoint: mean survival time, dose: 5.0 mg/kg/injection, schedule: Q01DX005 (ip), vehicle: other) was 118 % of control and 122 % of control, the T/C (endpoint: mean survival time, dose: 10.0 mg/kg/injection, schedule: Q01DX005 (ip), vehicle: other) was 172 % of control and the T/C (endpoint: mean survival time, dose: 15.0 mg/kg/injection, schedule: Q01DX005 (ip), vehicle: other) was 177 % of control. For the same compound, the T/C (endpoint: mean survival time, dose: 18.0 mg/kg/injection, schedule: Q01DX004 (ip), vehicle: other) was 165 % of control and 183 % of control, the T/C (endpoint: mean survival time, dose: 20.0 mg/kg/injection, schedule: Q01DX005 (ip), vehicle: other) was 175 % of control and 176 % of control and 200 % of control and the T/C (endpoint: mean survival time, dose: 25.0 mg/kg/injection, schedule: Q01DX005 (ip), vehicle: other) was 171 % of control and 211 % of control and 220 % of control. For the same compound, the T/C (endpoint: mean survival time, dose: 27.0 mg/kg/injection, schedule: Q01DX004 (ip), vehicle: other) was 182 % of control and 234 % of control, the T/C (endpoint: mean survival time, dose: 27.0 mg/kg/injection, schedule: Q02DX004 (ip), vehicle: other) was 178 % of control and 193 % of control and the T/C (endpoint: mean survival time, dose: 30.0 mg/kg/injection, schedule: Q01DX005 (ip), vehicle: other) was 217 % of control and 249 % of control and 252 % of control. For the same compound, the T/C (endpoint: mean survival time, dose: 35.0 mg/kg/injection, schedule: Q01DX005 (ip), vehicle: other) was 201 % of control and 267 % of control and 298 % of control, the T/C (endpoint: mean survival time, dose: 40.0 mg/kg/injection, schedule: Q01DX004 (ip), vehicle: other) was 263 % of control and 291 % of control and the T/C (endpoint: mean survival time, dose: 40.0 mg/kg/injection, schedule: Q02DX004 (ip), vehicle: other) was 213 % of control and 226 % of control. For the same compound, the T/C (endpoint: mean survival time, dose: 40.0 mg/kg/injection, schedule: Q03DX004 (ip), vehicle: other) was 216 % of control and 246 % of control, the T/C (endpoint: mean survival time, dose: 60.0 mg/kg/injection, schedule: Q01DX004 (ip), vehicle: other) was 249 % of control and 323 % of control and the T/C (endpoint: mean survival time, dose: 60.0 mg/kg/injection, schedule: Q02DX004 (ip), vehicle: other) was 248 % of control and 280 % of control. The T/C (endpoint: mean survival time, dose: 60.0 mg/kg/injection, schedule: Q03DX004 (ip), vehicle: other) was 242 % of control and 305 % of control, the T/C (endpoint: mean survival time, dose: 60.0 mg/kg/injection, schedule: Q04DX004 (ip), vehicle: other) was 202 % of control and 260 % of control and the T/C (endpoint: mean survival time, dose: 90.0 mg/kg/injection, schedule: Q02DX004 (ip), vehicle: other) was 277 % of control and 309 % of control. For the same compound, the T/C (endpoint: mean survival time, dose: 90.0 mg/kg/injection, schedule: Q03DX004 (ip), vehicle: other) was 291 % of control and 328 % of control, the T/C (endpoint: mean survival time, dose: 90.0 mg/kg/injection, schedule: Q04DX004 (ip), vehicle: other) was 340 % of control and 303 % of control and the T/C (endpoint: mean survival time, dose: 100.0 mg/kg/injection, schedule: Q01DX001 (ip), vehicle: saline with Tween-80) was 200 % of control. The T/C (endpoint: mean survival time, dose: 135.0 mg/kg/injection, schedule: Q03DX004 (ip), vehicle: other) was 175 % of control and 249 % of control, the T/C (endpoint: mean survival time, dose: 135.0 mg/kg/injection, schedule: Q04DX004 (ip), vehicle: other) was 267 % of control and 327 % of control and the T/C (endpoint: mean survival time, dose: 150.0 mg/kg/injection, schedule: Q01DX001 (ip), vehicle: saline with Tween-80) was 229 % of control. For the same compound, the T/C (endpoint: mean survival time, dose: 200.0 mg/kg/injection, schedule: Q04DX004 (ip), vehicle: other) was 203 % of control and 244 % of control, the T/C (endpoint: median survival time, dose: 75.0 mg/kg/injection, schedule: Q04DX002 (ip), vehicle: saline with Tween-80) was 318 % of control and 327 % of control and the T/C (endpoint: median survival time, dose: 100.0 mg/kg/injection, schedule: Q04DX002 (ip), vehicle: saline with Tween-80) was 314 % of control and 315 % of control.
For `O=NN(CCF)C(=O)NC1CSCSC1`, the T/C (endpoint: mean survival time, dose: 3.7 mg/kg/injection, schedule: Q01DX001 (ip), vehicle: other) was 124 % of control, the T/C (endpoint: mean survival time, dose: 7.0 mg/kg/injection, schedule: Q01DX001 (ip), vehicle: other) was 186 % of control and 204 % of control and the T/C (endpoint: mean survival time, dose: 15.0 mg/kg/injection, schedule: Q01DX001 (ip), vehicle: other) was 351 % of control and 417 % of control. The T/C (endpoint: mean survival time, dose: 31.0 mg/kg/injection, schedule: Q01DX001 (ip), vehicle: other) was 582 % of control and 744 % of control and the T/C (endpoint: mean survival time, dose: 62.0 mg/kg/injection, schedule: Q01DX001 (ip), vehicle: other) was 433 % of control and 846 % of control.
`O=NN(CCF)C(=O)NCCCl` was tested, and the T/C (endpoint: mean survival time, dose: 9.0 mg/kg/injection, schedule: Q01DX001 (ip), vehicle: Klucel (hydroxypropylcellulose) (HPC)) was 197 % of control and 294 % of control, the T/C (endpoint: mean survival time, dose: 14.0 mg/kg/injection, schedule: Q01DX001 (ip), vehicle: Klucel (hydroxypropylcellulose) (HPC)) was 226 % of control and 270 % of control and the T/C (endpoint: mean survival time, dose: 21.0 mg/kg/injection, schedule: Q01DX001 (ip), vehicle: Klucel (hydroxypropylcellulose) (HPC)) was 342 % of control and 307 % of control. The T/C (endpoint: mean survival time, dose: 32.0 mg/kg/injection, schedule: Q01DX001 (ip), vehicle: Klucel (hydroxypropylcellulose) (HPC)) was 603 % of control and 323 % of control.
